Results published in patent publication US20250325517A1, “ORAL DOSAGE FORMS OF ELRAGLUSIB” (Actuate Therapeutics, Inc., priority 2022, published 2025).

Test: Kinetic solubility of six ASDs in biorelevant media (SGF, FaSSIF, FeSSIF) at 37° C., 1 and 2 h
Type: physicochemical
Protocol: The three biorelevant media were: SGF, FaSSIF, and FeSSIF. These were prepared using procedure and FaSSIF/FeSSIF/FaSSGF Powder obtained from Biorelevant.com (https://biorelevant.com/learning_center/how-make-fassif/). A suspension of each ASD was prepared in SGF, FaSSIF, and FeSSIF and each was allowed to stir at 400 rpm. An aliquot of the supernatant was taken out at 1 and 2 hours, syringe filtered using a cellulose acetate filter ([…] pore size) and analyzed by HPLC. The solubilities of each ASD in SGF, FaSSIF, and FeSSIF are presented in Table 2A-8, Table 2A-9, and Table 2A-10, respectively. […] In addition, at 2 hours the remaining solids were analyzed by XRPD. […] These peaks correspond to residual FeSSIF buffer crystallizing on the ASD solids upon drying. (See Tables 2A-8, -9, and -10).

Cn1cc(C2=C(c3coc4ccc(F)cc34)C(=O)NC2=O)c2cc3c(cc21)OCO3 [NA]
1 hr solubility in FeSSIF (n = 2) (37° C., 400 rpm): 5 µg/mL
2 hr solubility in FeSSIF (n = 2) (37° C., 400 rpm): 6 µg/mL
XRPD after FeSSIF (solids remaining at 2 hours): Form I + one peak ~9°
